Test results from patent US20060069132A1, “Azolecarboxamide herbicides” (priority 2004, published 2006).
Where two headings read alike, the source gives them in different places.

Legend:
corn = test: Test C pre-/postemergence herbicide test; type: in vivo, Zea mays
Method in brief: (§1)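 Visual injury scores run from 0 (no effect) to 100 (complete control), assessed relative to untreated controls 12 to 14 days after treatment in the greenhouse. Chemicals were formulated in a non-phytotoxic solvent mixture with surfactant and applied to soil after planting or to emerged plants at the 1- to 4-leaf stage.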

morningglory [1] = test: Test A pre-/postemergence herbicide test; type: in vivo, Ipomoea spp.; settings: Ipomoea, 240 h; for pest or weed control at 500 g/ha: 500 g ai/ha; for pest or weed control at 2000 g/ha: 2000 g ai/ha
Method in brief: (§2)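 Pre: seeded sandy loam, directed soil spray, compound in non-phytotoxic solvent + surfactant. Post: 1–2-leaf plants (2–10 cm), sprayed to runoff. Greenhouse ~10 d; visual injury vs untreated, 0–100 scale.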

[2] = test system: common (oilseed) sunflower; test: Test C pre-/postemergence herbicide test; type: in vivo, Helianthus annuus
Method in brief: as §1

rice = test: Test C flooded paddy test; type: in vivo, Oryza sativa; settings: Oryza sativa
Method in brief: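 Injury scored visually against controls on a 0 (no effect) to 100 (complete control) scale, 12 to 14 days after treatment in greenhouse. Flooded paddy plants treated at 2-leaf stage; postemergence plants at 1- to 4-leaf stage, 2 to 18 cm tall.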

yellow nutsedge = test: Test C pre-/postemergence herbicide test; type: in vivo, Cyperus esculentus
Method in brief: as §1

giant foxtail = test: Test C pre-/postemergence herbicide test; type: in vivo, Setaria faberi
Method in brief: as §1

woolly cupgrass = test: Test C pre-/postemergence herbicide test; type: in vivo, Eriochloa villosa
Method in brief: as §1

lambsquarters = test: Test C pre-/postemergence herbicide test; type: in vivo, Chenopodium album
Method in brief: as §1

ducksalad = test: Test C flooded paddy test; type: in vivo, Heteranthera limosa; settings: Heteranthera limosa
[3] = test system: smallflower umbrella sedge; test: Test C flooded paddy test; type: in vivo, Cyperus difformis; settings: Cyperus difformis
morningglory [4] = test: Test C pre-/postemergence herbicide test; type: in vivo, Ipomoea coccinea
Method in brief: as §1

velvetleaf = test: Test A pre-/postemergence herbicide test; type: in vivo, Abutilon theophrasti; settings: Abutilon theophrasti, 240 h; for pest or weed control at 500 g/ha: 500 g ai/ha; for pest or weed control at 2000 g/ha: 2000 g ai/ha
Method in brief: as §2

Surinam grass = test: Test C pre-/postemergence herbicide test; type: in vivo, Urochloa decumbens
Method in brief: as §1

[5] = Preemergence, 500 g ai/ha, scale 0 to 100, 0 no effect, 100 complete control
[6] = post-emergence, Postemergence, 0 to 100 scale, 0 no effect, 100 complete control, read-out: Plant response rating, Morningglory
[7] = post-emergence, Postemergence, 0 to 100 scale, 0 no effect, 100 complete control, read-out: Plant response rating, Velvetleaf

## CCNC(=O)c1ccc(F)c(NC(=O)c2cc(C(C)(C)C)nn2CC)c1 [Compound 2, 3-(1,1-dimethylethyl)-1-ethyl-N-[5-[(ethylamino)carbonyl]-2-fluorophenyl]-1H-pyrazole-5-carboxamide]
corn; 62 g ai/ha, preemergence
  Plant response rating (0 = no effect, 100 = complete control), Corn: 0
corn; [5]
  Corn plant response rating: 60
corn; Zea mays, pre-emergence, 312 h, 125 g ai/ha, scale 0-100
  Corn plant response rating (crop injury, 0 = no effect, 100 = complete kill) at 125 g/ha: 30%
corn; Zea mays, pre-emergence, 312 h, 250 g ai/ha, scale 0 to 100 (0 no effect, 100 complete control), visual, 12 to 14 days
  Corn plant response rating (crop injury, 0 = no effect, 100 = complete kill) at 250 g/ha: 35%
Morningglory [1]; [6]
  pest or weed control at 500 g/ha: 45%
  pest or weed control at 2000 g/ha: 80%
Morningglory [1]; pre-emergence, Preemergence, visual rating, 0 to 100 scale (0 no effect, 100 complete control), read-out: Morningglory plant response rating
  pest or weed control at 500 g/ha: 80%
Morningglory [1]; pre-emergence, Preemergence, 0 to 100 scale, 0 no effect, 100 complete control, read-out: Morningglory plant response rating
  pest or weed control at 2000 g/ha: 100%
[2]; 62 g ai/ha, preemergence
  Plant response rating (0 = no effect, 100 = complete control), Sunflower: 0
[2]; Helianthus annuus, pre-emergence, 250 g ai/ha, scale 0 to 100 (0 no effect, 100 complete control), visual, 12 to 14 days, read-out: Plant response rating, Sunflower
  pest or weed control at 250 g/ha: 0%
[2]; [5]
  Sunflower plant response rating: 0
rice; 62 g ai/ha, scale 0 to 100 (0 no effect, 100 complete control), read-out: Rice plant response rating
  plant injury at 62 g/ha: 50%
rice; 125 g ai/ha, scale of 0 to 100, 0 is no effect, 100 is complete control, read-out: Rice plant response rating
  plant injury at 125 g/ha: 50%
rice; 250 g ai/ha, visual rating after 12 to 14 days, scale 0 to 100 (0 no effect, 100 complete control), read-out: Plant response rating, Rice
  plant injury at 250 g/ha: 65%
rice; 500 g ai/ha, visual rating after 12 to 14 days, scale 0 to 100 (0 no effect, 100 complete control), read-out: Plant response rating, Rice
  plant injury at 500 g/ha: 85%
Yellow nutsedge; 62 g ai/ha, preemergence
  Plant response rating (0 = no effect, 100 = complete control), Nutsedge, Yellow: 30
Yellow nutsedge; Cyperus, pre-emergence, 250 g ai/ha, scale 0 to 100 (0 no effect, 100 complete control), visual, 12 to 14 days, read-out: Plant response rating, Nutsedge, Yellow
  pest or weed control at 250 g/ha: 90%
Giant foxtail; 62 g ai/ha, preemergence
  Plant response rating (0 = no effect, 100 = complete control), Foxtail, Giant: 80
Giant foxtail; [5]
  Foxtail, Giant plant response rating: 100
Giant foxtail; Setaria faberi, pre-emergence, 312 h, 125 g ai/ha, scale 0-100, read-out: Plant response rating, Foxtail, Giant
  pest or weed control at 125 g/ha: 100%
Giant foxtail; Setaria faberi, pre-emergence, 312 h, 250 g ai/ha, scale 0 to 100 (0 no effect, 100 complete control), visual, 12 to 14 days, read-out: Plant response rating, Foxtail, Giant
  pest or weed control at 250 g/ha: 100%
Woolly cupgrass; 62 g ai/ha, preemergence
  Plant response rating (0 = no effect, 100 = complete control), Cupgrass, Woolly: 40
Woolly cupgrass; Eriochloa villosa, pre-emergence, 312 h, 125 g ai/ha, scale 0-100, read-out: Plant response rating, Cupgrass, Woolly
  pest or weed control at 125 g/ha: 60%
Woolly cupgrass; Eriochloa villosa, pre-emergence, 312 h, 250 g ai/ha, scale 0 to 100 (0 no effect, 100 complete control), visual, 12 to 14 days, read-out: Plant response rating, Cupgrass, Woolly
  pest or weed control at 250 g/ha: 60%
Woolly cupgrass; [5]
  Cupgrass, Woolly plant response rating: 80
lambsquarters; 62 g ai/ha, preemergence
  Plant response rating (0 = no effect, 100 = complete control), Lambsquarters: 100
lambsquarters; Chenopodium album, pre-emergence, 125 g ai/ha, scale 0-100, read-out: Plant response rating, Lambsquarters
  pest or weed control at 125 g/ha: 100%
lambsquarters; Chenopodium album, pre-emergence, 250 g ai/ha, scale 0 to 100 (0 no effect, 100 complete control), visual, 12 to 14 days, read-out: Plant response rating, Lambsquarters
  pest or weed control at 250 g/ha: 100%
lambsquarters; [5]
  Lambsquarters plant response rating: 100
ducksalad; 62 g ai/ha, scale 0 to 100 (0 no effect, 100 complete control), read-out: Ducksalad plant response rating
  pest or weed control at 62 g/ha: 80%
ducksalad; 125 g ai/ha, scale of 0 to 100, 0 is no effect, 100 is complete control, read-out: Ducksalad plant response rating
  pest or weed control at 125 g/ha: 80%
ducksalad; 250 g ai/ha, visual rating after 12 to 14 days, scale 0 to 100 (0 no effect, 100 complete control), read-out: Plant response rating, Ducksalad
  pest or weed control at 250 g/ha: 85%
ducksalad; 500 g ai/ha, visual rating after 12 to 14 days, scale 0 to 100 (0 no effect, 100 complete control), read-out: Plant response rating, Ducksalad
  pest or weed control at 500 g/ha: 95%
[3]; 62 g ai/ha, scale 0 to 100 (0 no effect, 100 complete control), read-out: Sedge, Umbrella plant response rating
  pest or weed control at 62 g/ha: 75%
[3]; 125 g ai/ha, scale of 0 to 100, 0 is no effect, 100 is complete control, read-out: Sedge, Umbrella plant response rating
  pest or weed control at 125 g/ha: 75%
[3]; 250 g ai/ha, visual rating after 12 to 14 days, scale 0 to 100 (0 no effect, 100 complete control), read-out: Plant response rating, Sedge, Umbrella
  pest or weed control at 250 g/ha: 85%
[3]; 500 g ai/ha, visual rating after 12 to 14 days, scale 0 to 100 (0 no effect, 100 complete control), read-out: Plant response rating, Sedge, Umbrella
  pest or weed control at 500 g/ha: 95%
Morningglory [4]; 62 g ai/ha, preemergence
  Plant response rating (0 = no effect, 100 = complete control), Morningglory: 5
Morningglory [4]; Ipomoea, pre-emergence, 250 g ai/ha, scale 0 to 100 (0 no effect, 100 complete control), visual, 12 to 14 days, read-out: Plant response rating, Morningglory
  pest or weed control at 250 g/ha: 45%
Morningglory [4]; [5]
  Morningglory plant response rating: 100
velvetleaf; [7]
  pest or weed control at 500 g/ha: 40%
  pest or weed control at 2000 g/ha: 75%
velvetleaf; pre-emergence, Preemergence, visual rating, 0 to 100 scale (0 no effect, 100 complete control), read-out: Velvetleaf plant response rating
  pest or weed control at 500 g/ha: 100%
velvetleaf; pre-emergence, Preemergence, 0 to 100 scale, 0 no effect, 100 complete control, read-out: Velvetleaf plant response rating
  pest or weed control at 2000 g/ha: 100%
Surinam grass; 62 g ai/ha, preemergence
  Plant response rating (0 = no effect, 100 = complete control), Surinam Grass: 90
Surinam grass; [5]
  Surinam Grass plant response rating: 100
Surinam grass; Urochloa decumbens, pre-emergence, 312 h, 250 g ai/ha, scale 0 to 100 (0 no effect, 100 complete control), visual, 12 to 14 days, read-out: Plant response rating, Surinam Grass
  pest or weed control at 250 g/ha: 100%
